Measurements published in patent publication US20040062764A1, “Chemoprotectant for gastric toxicity” (priority 2003, published 2004).
Values after ≈ are worked out from the molar mass of the structure shown. “Also recorded” adds a separate entry of the source. Where two headings read alike, the source gives them in different places.

Legend:
[1] = tested on: human gastric carcinoma cell line (AGS); assay: Cytotoxicity dose response in gastric carcinoma cells; settings: for EC50: Homo sapiens, AGS; for cell survival, comparison of combinations (FIGS. 5 and 6): NAC+BSO+BR96-DOX versus BR96-DOX+BSO without NAC
Description: (§1) A NHGC cell line and a human gastric carcinoma cell line (AGS) were obtained.
The dose response curves for BR96-DOX and doxorubicin with or without the addition of buthionine sulfoximine (BSO) at a concentration of 100 μM were assessed.

[2] = tested on: GSH; assay: Blood and tissue GSH levels, colorometric kit; format: in vivo, nude rats; settings: BSO 10 g/m^2 i.p. b.i.d. x 3 days; even in brain and intracerebral tumor
Description: (§2) NAC biodistribution was determined with radiolabelled tracer (n=12). Blood and tissue GSH levels were measured with a colorometric kit 9 (n=19). For bone marrow toxicity studies, rats were treated with or without BSO (10 g/m^2 i.p. b.i.d.×3 days), followed by chemotherapy consisting of intra-carotid carboplatin (200 mg/m^2), melphalan (10 mg/m^2) and etoposide phosphate (100 mg/m^2) (n=61). The dose of NAC was 1200 mg/m^2 and STS was 8 gm/m^2. White blood cell and platelet counts were obtained prior to, at 6 days and 9-10 days after chemotherapy.

[3] = tested on: bone marrow; assay: Bone marrow toxicity study after intra-carotid combination chemotherapy
Description: as §2

[4] = tested on: low-expressor and high-expressor subclones of the LX-1 SCLC cell line; assay: BSO cytoenhancement in LX-1 SCLC subclones; format: cell-based, human; settings: low- and high-expressor LX-1 subclones
[5] = tested on: normal human gastric cells (NHGC); settings: for percent viable gastric cells, BR96-DOX plus chemoprotectant (FIGS. 3 and 4): with or without BSO pretreatment
Description: Cytotoxicity was assessed in cultured normal human gastric cells (NHGC), using the WST colorometric assay for live cells. Cells were treated with approximately LD90 dose of BR96-DOX, immediately followed by NAC at the indicated concentrations.
as §1

[6] = after a bolus injection; cited from earlier work
[7] = tested on: B.5 LX-1 SCLC cells; assay: WST colorometric live-cell assay, NAC chemoprotection against alkylating chemotherapy; format: cell-based; settings: Homo sapiens; approx. LD90 chemotherapy (melphalan 20 μM, carboplatin 200 μM, cisplatin 20 μM); NAC added immediately after; all three drugs; read-out: NAC concentration for half-maximal protection against cell death
Description: Cytotoxicity was assessed in cultured B.5 LX-1 SCLC cells, using the WST colorometric assay for live cells. Cells were treated with approximately LD90 dose of chemotherapy (melphalan=20 μM, carboplatin=200 μM, cisplatin=20 μM). Immediately following chemotherapy, NAC chemoprotectant was added at the indicated concentration. NAC protected against cell death by all three chemotherapeutic drugs, with half-maximal protection found between 0.1 mg/ml NAC and 0.3 mg/ml NAC.

[8] = NAC biodistribution with radiolabelled tracer; format: in vivo, rat
Description: as §2

COc1cccc2c1C(=O)c1c(O)c3c(c(O)c1C2=O)C[C@@](O)(C(=O)CO)C[C@@H]3O[C@H]1C[C@H](N)[C@H](O)[C@H](C)O1 [doxorubicin]
EC50 ([1]; read-out: half maximal cytotoxic dose (EC50), AGS cells, absence of BSO): 0.1 mg/L (≈ 0.184 µM) | EC50 ([1]; read-out: half maximal cytotoxic dose (EC50), AGS cells, pretreatment with BSO 100 μM): ~0.05 mg/L (≈ 0.092 µM)

CCCCS(=N)(=O)CCC(N)C(=O)O (stereo not shown) [BSO, buthionine sulfoximine]
reduction of blood and tissue GSH levels [2]: 50-65% | bone marrow toxicity of combination chemotherapy ([3]; BSO pretreatment, intra-carotid carboplatin, melphalan, etoposide phosphate): enhanced the bone marrow toxicity | effect of BSO on cytotoxicity in carcinoma cells [1]: enhanced cytotoxicity | cell survival, comparison of combinations (FIGS. 5 and 6) [1]: least survival | effect of BSO on cytotoxicity of BR96-DOX or doxorubicin [4]: did not enhance the cytotoxicity | effect of BSO on cytotoxicity of BR96-DOX or doxorubicin in normal gastric cells ([5]; NHGC): did not increase toxicity; also recorded: did not enhance the cytotoxicity

CCOC(=O)CNC(=O)[C@H](CS)NC(=O)CC[C@H](N)C(=O)O [GSH ethyl ester]
reduction of BR96-DOX cell kill, other chemoprotective agents ([5]; NHGC): 15-20% | percent viable gastric cells, BR96-DOX plus chemoprotectant (FIGS. 3 and 4) [5]: second highest amount of viable gastric cells

CSCC[C@@H](N)C(=O)O [d-Methionine, D-methionine]
reduction of BR96-DOX cell kill, other chemoprotective agents ([5]; NHGC): no significant effect

O=S([O-])([O-])=S.[Na+].[Na+] [STS, sodium thiosulfate]
plasma half life [6]: about 17 minutes | reduction of BR96-DOX cell kill, other chemoprotective agents ([5]; NHGC): no significant effect

CC(=O)N[C@@H](CS)C(=O)O [NAC, N-acetylcysteine]
EC50 [7]: 100 to 300 mg/L (≈ 613 to 1840 µM) | granulocytes at nadir ([3]; day 6, NAC 1200 mg/m^2 aortic infusion before intra-carotid chemotherapy, no BSO, no NAC: 146±160, p<0.02): 785±494 | platelets at nadir ([3]; day 6, NAC 1200 mg/m^2 aortic infusion before intra-carotid chemotherapy, no BSO, no NAC: 215±126, p<0.02): 470±234 | effect on BSO-enhanced BR96-DOX cytotoxicity [1]: did reverse the enhanced cytotoxicity | effect on response to BR96-DOX ([1]; AGS cells not treated with BSO): did not alter the response | cell survival, comparison of combinations (FIGS. 5 and 6) [1]: greatest amount of cells survived | protection against BR96-DOX cytotoxicity in normal gastric cells ([5]; NHGC): protected the normal gastric cells; also recorded: at least partially protective; also recorded: protective independent of the presence of BSO | reduction of BR96-DOX cell kill ([5]; NHGC, experiment 1): 25% | reduction of BR96-DOX cell kill ([5]; NHGC, experiment 2): 95% | reduction of BR96-DOX cell kill ([5]; NHGC, experiment 3): 55% | protective NAC concentration relative to that required against alkylating chemotherapeutics ([5]; NHGC/BR96-DOX vs B.5 LX-1/alkylators): 10 fold | percent viable gastric cells, BR96-DOX plus chemoprotectant (FIGS. 3 and 4) [5]: increased the percentage of viable gastric cells | systemic delivery of radiolabelled NAC ([8]; aortic infusion): increasing systemic delivery | brain delivery of radiolabelled NAC ([8]; aortic infusion (retrograde left external carotid, left internal carotid occluded)): negligible levels | brain delivery of radiolabelled NAC ([8]; intraarterial, right carotid artery): high delivery to the right cerebral hemisphere
